# Laboratory results from patent US20060079453A1, “Hla binding peptides and their uses” (priority 2002, published 2006).
# pIC50: −log10 of the molar value. Read-outs that look alike come from different tables or passages of the source. No end group written: not given here.
# What was measured:
# Test in all cases: biochemical
# Assay type in all cases: binding
# HLA-DR DRB1*1501 (DR15) = HLA-DR DRB1*1501 (DR15) (Homo sapiens, UniProt P01903+P01911)
# HLA-DR DRB1*1302 (DR13) = HLA-DR DRB1*1302 (DR13) (Homo sapiens, UniProt P01903+P01911, A100E/A169T/K41T/L162R/M171V/P40S/Q125H/Q178H/Q39Y/Q99D/R42S/S66N/T262R/V115G/W38E/Y61H)
# HLA-DR DRB1*1101 (DR11) = HLA-DR DRB1*1101 (DR11) (Homo sapiens, UniProt P01903+P01911, A100R/A169T/A87E/I96F/K41T/L162R/M171V/P40S/Q125H/Q178H/Q39Y/Q99D/R42S/S66Y/T262R/V115G/W38E)
# HLA-DR DRB1*0101 (DR1) = HLA-DR DRB1*0101 (DR1) (Homo sapiens, UniProt P01903+P01911, A100R/D57E/F55L/F60I/F76Y/I96L/L162R/M171V/P40L/Q125E/R42F/V115G/Y59C)
# HLA-DR DRB1*0301 (DR3) = HLA-DR DRB1*0301 (DR3) (Homo sapiens, UniProt P01903+P01911, A100K/A102G/A103R/A169T/F55Y/I96L/K41T/L162R/M171V/P40S/Q125H/Q178H/Q39Y/R42S/S66N/T106N/T262R/W38E/Y61H)
# HLA-DR DRB4*0101 (DR53) = HLA-DR DRB4*0101 (DR53) (Homo sapiens, UniProt P01903+P13762, G164S)
# HLA-DR DRB5*0101 (DR51) = HLA-DR DRB5*0101 (DR51) (Homo sapiens, UniProt P01903+Q30154)
# HLA-DR DRB1*0401 (DR4) = HLA-DR DRB1*0401 (DR4) (Homo sapiens, UniProt P01903+P01911, A100K/A169T/F76Y/I96L/K127E/L162R/M171V/N62H/P40V/Q125Y/R42H/S133A/S149N/S66Y/V115G/V209L/W38E)
# HLA-DR DRB1*0701 (DR7) = HLA-DR DRB1*0701 (DR7) (Homo sapiens, UniProt P01903+P01911, A100R/A102G/A103Q/D57E/D86V/E43K/F76Y/K127E/L162R/M171V/P40G/Q125H/Q99D/R33Q/R42Y/R54Q/S133A/S66F/T210M/V115G/Y107V/Y59L/Y89S)
# Sequence of HLA-DR DRB1*0301 (DR3) (P01903 26-254 limits assumed, other chains not shown): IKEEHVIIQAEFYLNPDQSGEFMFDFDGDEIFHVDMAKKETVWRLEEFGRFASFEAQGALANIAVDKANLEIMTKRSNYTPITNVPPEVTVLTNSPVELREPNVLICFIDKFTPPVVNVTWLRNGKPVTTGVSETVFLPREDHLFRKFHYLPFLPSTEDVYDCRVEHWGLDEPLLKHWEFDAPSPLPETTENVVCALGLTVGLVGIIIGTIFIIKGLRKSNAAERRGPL
# Sequence of HLA-DR DRB1*1302 (DR13) (P01903 26-254 limits assumed, other chains not shown): as above
# Sequence of HLA-DR DRB1*1101 (DR11) (P01903 26-254 limits assumed, other chains not shown): as above
sequence,measurement,setting,value
LSFFLKEKGGLDGLI,pIC50,HLA-DR DRB1*1501 (DR15); read-out: DRBI *1501,< 4.40
same,pIC50,HLA-DR DRB1*1302 (DR13); read-out: DRBI *1302,< 4.92
same,pIC50,HLA-DR DRB1*1101 (DR11); read-out: DRB1 *1101,6.21
LSHFLKEKGGLEGL,pIC50,HLA-DR DRB1*0101 (DR1); read-out: DRB1 *0101,6.27
same,pIC50,HLA-DR DRB1*0301 (DR3); read-out: DRB1 *0301,< 3.47
LSHFLKEKGGLEGLI,pIC50,HLA-DR DRB4*0101 (DR53); read-out: DRB4 *0101,4.73
same,pIC50,HLA-DR DRB5*0101 (DR51); read-out: DRB5 *0101,< 4.69
same,pIC50,HLA-DR DRB1*1501 (DR15); read-out: DRBI *1501,< 4.40
same,pIC50,HLA-DR DRB1*1302 (DR13); read-out: DRBI *1302,< 4.92
same,pIC50,HLA-DR DRB1*1101 (DR11); read-out: DRB1 *1101,5.02
LWWVNNESLPVSPRL,pIC50,HLA-DR DRB1*0301 (DR3),6.50
MLDLQPEITDLYCYE,pIC50,HLA-DR DRB4*0101 (DR53); read-out: DRB4 *0101,7.70
same,pIC50,HLA-DR DRB5*0101 (DR51); read-out: DRB5 *0101,< 4.82
same,pIC50,HLA-DR DRB1*1501 (DR15); read-out: DRBI *1501,< 4.32
same,pIC50,HLA-DR DRB1*1302 (DR13); read-out: DRBI *1302,< 4.92
same,pIC50,HLA-DR DRB1*1101 (DR11); read-out: DRB1 *1101,< 4.82
MTLYQIQVMKRNQKQ,pIC50,HLA-DR DRB1*0101 (DR1); DRB1 *0101,5.91
same,pIC50,HLA-DR DRB4*0101 (DR53); DRB4 *0101,7.09
same,pIC50,HLA-DR DRB5*0101 (DR51); DRB5 *0101,7.66
same,pIC50,HLA-DR DRB1*1501 (DR15); DRBI *1501,5.61
same,pIC50,HLA-DR DRB1*0401 (DR4); DRB1 *0401,6.93
same,pIC50,HLA-DR DRB1*0701 (DR7); DRB1 *0701,4.51
same,pIC50,HLA-DR DRB1*1302 (DR13); DRBI *1302,6.49
QKKYIYNLIMNTQNK,pIC50,HLA-DR DRB1*0101 (DR1); DRB1 *0101,7.14
same,pIC50,HLA-DR DRB4*0101 (DR53); DRB4 *0101,7.06
same,pIC50,HLA-DR DRB1*1501 (DR15); DRBI *1501,6.07
same,pIC50,HLA-DR DRB1*0401 (DR4); DRB1 *0401,7.62
same,pIC50,HLA-DR DRB1*0701 (DR7); DRB1 *0701,4.92
same,pIC50,HLA-DR DRB1*1302 (DR13); DRBI *1302,7.28
REYILDLHPEPTDLF,pIC50,HLA-DR DRB5*0101 (DR51); read-out: DRB5 *0101,< 4.50
same,pIC50,HLA-DR DRB1*1501 (DR15); read-out: DRBI *1501,< 4.48
same,pIC50,HLA-DR DRB1*1101 (DR11); read-out: DRB1 *1101,5.38
RGGMVFELANSIVLP,pIC50,HLA-DR DRB4*0101 (DR53); read-out: DRB4 *0101,6.39
same,pIC50,HLA-DR DRB5*0101 (DR51); read-out: DRB5 *0101,6.38
same,pIC50,HLA-DR DRB1*1501 (DR15); read-out: DRBI *1501,7.03
same,pIC50,HLA-DR DRB1*1302 (DR13); read-out: DRBI *1302,8.36
same,pIC50,HLA-DR DRB1*1101 (DR11); read-out: DRB1 *1101,< 4.30
SEVYDFAFADLTVVY,pIC50,HLA-DR DRB1*0101 (DR1); DRB1 *0101,7.51
same,pIC50,HLA-DR DRB5*0101 (DR51); DRB5 *0101,4.93
same,pIC50,HLA-DR DRB1*1501 (DR15); DRBI *1501,6.02
same,pIC50,HLA-DR DRB1*0401 (DR4); DRB1 *0401,6.59
same,pIC50,HLA-DR DRB1*0301 (DR3),5.52
same,pIC50,HLA-DR DRB1*0701 (DR7); DRB1 *0701,5.73
same,pIC50,HLA-DR DRB1*1302 (DR13); DRBI *1302,< 4.88
same,pIC50,HLA-DR DRB1*1101 (DR11); DRB1 *1101,< 4.74
SHDLMLLRISEPAEL,pIC50,HLA-DR DRB4*0101 (DR53); read-out: DRB4 *0101,7.92
same,pIC50,HLA-DR DRB5*0101 (DR51); read-out: DRB5 *0101,≤ 4.00
same,pIC50,HLA-DR DRB1*1501 (DR15); read-out: DRBI *1501,5.96
same,pIC50,HLA-DR DRB1*1302 (DR13); read-out: DRBI *1302,8.24
SHDLMLLRLSEPAK,pIC50,HLA-DR DRB1*0101 (DR1); read-out: DRB1 *0101,7.25
same,pIC50,HLA-DR DRB1*0401 (DR4); read-out: DRB1 *0401,5.65
same,pIC50,HLA-DR DRB1*0301 (DR3); read-out: DRB1 *0301,5.62
SKIMKLPKLPISNGK,pIC50,HLA-DR DRB4*0101 (DR53); DRB4 *0101,5.17
same,pIC50,HLA-DR DRB5*0101 (DR51); DRB5 *0101,< 4.99
same,pIC50,HLA-DR DRB1*1501 (DR15); DRBI *1501,5.45
same,pIC50,HLA-DR DRB1*1302 (DR13); DRBI *1302,5.19
SVTWIGAAPLILSRI,pIC50,HLA-DR DRB4*0101 (DR53); read-out: DRB4 *0101,7.38
same,pIC50,HLA-DR DRB1*1302 (DR13); read-out: DRBI *1302,6.38
same,pIC50,HLA-DR DRB1*1101 (DR11); read-out: DRB1 *1101,5.66
TCCYTCGTTVRLCIN,pIC50,HLA-DR DRB1*0401 (DR4); read-out: DRB1 *0401,6.14
same,pIC50,HLA-DR DRB1*0301 (DR3); read-out: DRB1 *0301,4.70
same,pIC50,HLA-DR DRB1*0701 (DR7); read-out: DRB1 *0701,7.20
